Measurements published in patent publication US20240294531A1, “COVALENT HETEROCYCLES AND USES THEREOF” (Kumquat Biosciences Inc., priority 2022, published 2024).

Columns and labels:
BTK wildtype protein = BTK wildtype protein (Homo sapiens (Human), UniProt Q06187); experiment: BTK wildtype HTRF displacement assay; assay type: binding; conditions: 1-hour incubation; read-out: BTK (wt) IC50
Procedure: (§1) The ability of a compound to bind BTK wildtype or BTK C481S proteins was measured using an HTRF displacement assay. The assay measures the ability of a compound to displace a tracer ligand bound to the active site of BTK wildtype or BTK C481 S proteins.
(§2) Test compounds were prepared as 10 mM stock solutions in DMSO (Fisher cat #BP231-100). Compounds to be assayed were dispensed using an Echo 650 acoustic dispenser (Beckman Coulter) on a 384 well plate in 6 doses applying four-fold dilutions from the highest concentration of 5 μM. N-terminal GST-tagged recombinant full-length BTK wildtype protein and BTK C481 S protein 2-659 were purchased from Carna Biosciences, Inc (Kobe, Japan). BTK wildtype or BTK C481S protein was separately incubated with compound in assay buffer containing kinase tracer 239 (Thermo Fisher) and Mab anti GST-Th (PerkinElmer). After a 1-hour incubation at room temperature, the HTRF signal was measured using SPARK plate reader (Tecan) using the TR fluorescence mode. The HTRF ratio is calculated for DMSO, no protein control and compound samples using the following equation: HTRF ratio=Emmision665/Emmision620×10^4. The signal for the no protein control samples was used to subtract background noise from the DMSO and compound samples. Background subtracted HTRF ratios are used to calculate the percent inhibition, where DMSO controls are set to 0 percent inhibition. The percent inhibition is plotted as a function of compound concentration and IC50 values were calculated from a four-parameter logistic fit in Prism v9.4 (GraphPad), where the bottom and top are constrained to 0 and 100, respectively.

BTK C481S protein = BTK C481S protein (Homo sapiens (Human), UniProt Q06187, C481S); experiment: BTK C481S HTRF displacement assay; assay type: binding; conditions: 1-hour incubation
Procedure: as §1, §2
The same assay was used to measure the activity of selected compounds of the formula TBM-L-hydrogen. Using the IC50 value observed for a given reversible test compound, the KI of the test compound can be assessed using the formula KI=IC50/(1+([Tracer]/Kd)), wherein the tracer concentration in the assay [Tracer] is 50 nM and the tracer Kd for BTK C481S is 54 nM.

BTK C481S protein, sequence (Q06187 2-659 C481S): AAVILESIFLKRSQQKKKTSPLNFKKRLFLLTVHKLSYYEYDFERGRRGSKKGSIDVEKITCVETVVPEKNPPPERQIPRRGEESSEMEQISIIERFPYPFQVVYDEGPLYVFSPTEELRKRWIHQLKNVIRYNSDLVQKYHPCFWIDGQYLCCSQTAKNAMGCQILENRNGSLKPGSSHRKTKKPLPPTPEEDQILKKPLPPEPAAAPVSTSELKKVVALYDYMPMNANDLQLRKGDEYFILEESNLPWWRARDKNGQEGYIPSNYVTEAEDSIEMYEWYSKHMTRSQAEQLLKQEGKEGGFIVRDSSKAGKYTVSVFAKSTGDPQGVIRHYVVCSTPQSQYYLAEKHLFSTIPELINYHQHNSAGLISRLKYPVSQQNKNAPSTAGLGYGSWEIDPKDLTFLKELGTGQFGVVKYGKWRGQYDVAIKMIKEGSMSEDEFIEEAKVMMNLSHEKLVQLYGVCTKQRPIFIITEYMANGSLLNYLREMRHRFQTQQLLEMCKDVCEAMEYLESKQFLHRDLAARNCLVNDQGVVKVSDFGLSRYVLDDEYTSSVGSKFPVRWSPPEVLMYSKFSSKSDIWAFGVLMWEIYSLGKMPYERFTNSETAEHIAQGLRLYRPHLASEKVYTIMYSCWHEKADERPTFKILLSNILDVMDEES
BTK wildtype protein, sequence (Q06187 2-659): as the sequence (Q06187 2-659 C481S) above, with S480C counted along it

Row | SMILES | IC50 (BTK wildtype protein) [µM] | IC50 (BTK C481S protein) [µM]
1 | COc1ccc(F)cc1C(=O)NCc1ccc(-c2nn([C@H]3CC[C@@H](N(C)C(=O)n4cncn4)C3)c3ncnc(N)c23)cc1 [Compound 269, N-((1R,3S)-3-(4-amino-3-(4-((5-fluoro-2-methoxybenzamido)methyl)phenyl)-1H-pyrazolo [3,4-d]pyrimidin-1-yl)cyclopentyl)-N-methyl-1H-1,2,4-triazole-1-carboxamide] | ≤ 1 | ≤ 1
2 | CN(C(=O)n1cncn1)C1CCC(C2CCNc3c(C(N)=O)c(-c4ccc(Oc5ccccc5)cc4)nn32)CC1 (centres unmarked) [Compound 196, 7-(4-(N-methyl-1H-1,2,4-triazole-1-carboxamido)cyclohexyl)-2-(4-phenoxyphenyl)-4,5,6,7-tetrahydropyrazolo[1,5-a] pyrimidine-3-carboxamide] | ≤ 1 | ≤ 1
3 | COc1ccc(F)cc1C(=O)NCc1ccc(-c2nn(C[C@@H]3CCCCN3C(=O)n3cncn3)c3ncnc(N)c23)cc1 [Compound 274, (S)-N-(4-(1-((1-(1H-1,2,4-triazole-1-carbonyl)piperidin-2-yl)methyl)-4-amino-1H-pyrazolo[3,4-d]pyrimidin-3-yl)benzyl)-5-fluoro-2-methoxybenzamide] | ≤ 1 | ≤ 1
4 | COc1ccc(F)cc1C(=O)NCc1ccc(-c2nn(-c3cc(N(C)C(=O)n4cncn4)ccc3C)c3ncnc(N)c23)cc1 [Compound 276, N-(3-(4-amino-3-(4-((5-fluoro-2-methoxybenzamido)methyl)phenyl)-1H-pyrazolo[3,4-d]pyrimidin-1-yl)-4-methylphenyl)-N-methyl-1H-1,2,4-triazole-1-carboxamide] | ≤ 1 | > 1
5 | COc1ccc(C)cc1C(=O)NCc1ccc(-c2nn(C3CCC(N(C)C(=O)n4cnnn4)C3)c3ncnc(N)c23)cc1 (centres unmarked) [Compound 273, N-(3-(4-amino-3-(4-((2-methoxy-5-methylbenzamido)methyl)phenyl)-1H-pyrazolo[3,4-d]pyrimidin-1-yl)cyclopentyl)-N-methyl-1H-tetrazole-1-carboxamide] | ≤ 1 | ≤ 1
6 | COc1ccc(C)cc1C(=O)NCc1ccc(-c2nn(C3CCC(N(C)C(=O)n4cncn4)CC3)c3ncnc(N)c23)cc1 (centres unmarked) [Compound 258, N-(4-(4-amino-3-(4-((2-methoxy-5-methylbenzamido)methyl)phenyl)-1H-pyrazolo[3,4-d]pyrimidin-1-yl)cyclohexyl)-N-methyl-1H-1,2,4-triazole-1-carboxamide] | ≤ 1 | ≤ 1
7 | COc1ccc(F)cc1C(=O)NCc1ccc(-c2nn([C@H]3CCCC[C@H](N(C)C(=O)n4cncn4)C3)c(N)c2C(N)=O)cc1 [Compound 232, N-((1S,3S)-3-(5-amino-4-carbamoyl-3-(4-((5-fluoro-2-methoxybenzamido)methyl)phenyl)-1H-pyrazol-1-yl)cycloheptyl)-N-methyl-1H-1,2,4-triazole-1-carboxamide] | ≤ 1 | ≤ 1
8 | COc1ccc(F)cc1C(=O)NCc1ccc(-c2nn([C@H]3CCCC[C@@H](N(C)C(=O)n4cncn4)C3)c(N)c2C(N)=O)cc1 [Compound 222, N-((1R,3S)-3-(5-amino-4-carbamoyl-3-(4-((5-fluoro-2-methoxybenzamido)methyl)phenyl)-1H-pyrazol-1-yl)cycloheptyl)-N-methyl-1H-1,2,4-triazole-1-carboxamide] | ≤ 1 | ≤ 1
9 | COc1ccc(F)cc1C(=O)NCc1ccc(-c2nn(C[C@H]3C[C@@H](C)CCN3C(=O)n3cnnc3)c(N)c2C(N)=O)cc1 [Compound 212, 5-amino-3-(4-((5-fluoro-2-methoxybenzamido)methyl)phenyl)-1-(((2R,4S)-4-methyl-1-(4H-1,2,4-triazole-4-carbonyl)piperidin-2-yl)methyl)-1H-pyrazole-4-carboxamide] | ≤ 1 | ≤ 1
10 | COc1ccc(F)cc1C(=O)NCc1ccc(-c2nn(-c3cccc(N(C)C(=O)n4cncn4)c3)c3ncnc(N)c23)cc1 [Compound 187, N-(3-(4-amino-3-(4-((5-fluoro-2-methoxybenzamido)methyl)phenyl)-1H-pyrazolo[3,4-d]pyrimidin-1-yl)phenyl)-N-methyl-1H-1,2,4-triazole-1-carboxamide] | ≤ 1 | ≤ 1
11 | CN(C(=O)n1cncn1)C1CCCCC1n1nc(-c2ccc(Oc3ccccc3)cc2)c2c(N)ncnc21 (centres unmarked) [Compound 263, N-(2-(4-amino-3-(4-phenoxyphenyl)-1H-pyrazolo[3,4-d]pyrimidin-1-yl)cyclohexyl)-N-methyl-1H-1,2,4-triazole-1-carboxamide] | ≤ 1 | ≤ 1
12 | COc1ccc(C)cc1C(=O)NCc1ccc(-c2nn(CC3CCCCN3C(=O)n3cncn3)c3ncnc(N)c23)cc1 (centres unmarked) [Compound 217, N-(4-(1-((1-(1H-1,2,4-triazole-1-carbonyl)piperidin-2-yl)methyl)-4-amino-1H-pyrazolo[3,4-d]pyrimidin-3-yl)benzyl)-2-methoxy-5-methylbenzamide] | ≤ 1 | > 1
13 | COc1ccc(F)cc1C(=O)NCc1ccc(-c2nn(C(C)C3CCN(C(=O)n4cncn4)C3)c3ncnc(N)c23)cc1 (centres unmarked) [Compound 172, N-(4-(1-(1-(1-(1H-1,2,4-triazole-1-carbonyl)pyrrolidin-3-yl)ethyl)-4-amino-1H-pyrazolo[3,4-d]pyrimidin-3-yl)benzyl)-5-fluoro-2-methoxybenzamide] | ≤ 1 | ≤ 1
14 | COc1nn(C)cc1Nc1nc(N2CCCC(N(C)C(=O)n3cncn3)C2)nc2c1ncn2C (centres unmarked) [Compound 300, N-(1-(6-((3-methoxy-1-methyl-1H-pyrazol-4-yl)amino)-9-methyl-9H-purin-2-yl)piperidin-3-yl)-N-methyl-1H-1,2,4-triazole-1-carboxamide] | > 1 | ≤ 1

Other lines, results leading:

Row | IC50 (BTK wildtype protein) [µM] | IC50 (BTK C481S protein) [µM] | SMILES
15 | > 1 | > 1 | COc1ccc(F)cc1C(=O)NCc1ccc(-c2nn(C(CCN(C)C(=O)n3cncn3)Cc3ccccc3)c3ncnc(N)c23)cc1 (centres unmarked) [Compound 195, N-(3-(4-amino-3-(4-((5-fluoro-2-methoxybenzamido)methyl)phenyl)-1H-pyrazolo[3,4-d]pyrimidin-1-yl)-4-phenylbutyl)-N-methyl-1H-1,2,4-triazole-1-carboxamide]
16 | > 1 | > 1 | COc1ccc(F)cc1C(=O)NCc1ccc(-c2nn(C(CC(F)F)CN(C)C(=O)n3cncn3)c3ncnc(N)c23)cc1 (centres unmarked) [Compound 257, N-(2-(4-amino-3-(4-((5-fluoro-2-methoxybenzamido)methyl)phenyl)-1H-pyrazolo[3,4-d]pyrimidin-1-yl)-4,4-difluorobutyl)-N-methyl-1H-1,2,4-triazole-1-carboxamide]
17 | > 1 | > 1 | COCCC(CN(C)C(=O)n1cncn1)n1nc(-c2ccc(CNC(=O)c3cc(F)ccc3OC)cc2)c2c(N)ncnc21 (centres unmarked) [Compound 291, N-(2-(4-amino-3-(4-((5-fluoro-2-methoxybenzamido)methyl)phenyl)-1H-pyrazolo[3,4-d]pyrimidin-1-yl)-4-methoxybutyl)-N-methyl-1H-1,2,4-triazole-1-carboxamide]
18 | > 1 | > 1 | COc1ccc(F)cc1C(=O)NCc1ccc(-c2nn(C(CN(C(=O)n3cncn3)C3CC3)C3CC3)c3ncnc(N)c23)cc1 (centres unmarked) [Compound 231, N-(2-(4-amino-3-(4-((5-fluoro-2-methoxybenzamido)methyl)phenyl)-1H-pyrazolo[3,4-d]pyrimidin-1-yl)-2-cyclopropyl-ethyl)-N-cyclopropyl-1H-1,2,4-triazole-1-carboxamide]
19 | ≤ 1 | ≤ 1 | COc1ccc(F)cc1C(=O)NCc1ccc(-c2nn(C3(CCN(C)C(=O)n4cncn4)CCC3)c3ncnc(N)c23)cc1 [Compound 213, N-(2-(1-(4-amino-3-(4-((5-fluoro-2-methoxybenzamido)methyl)phenyl)-1H-pyrazolo[3,4-d]pyrimidin-1-yl)cyclobutyl)ethyl)-N-methyl-1H-1,2,4-triazole-1-carboxamide]
20 | > 1 | > 1 | COc1ccc(F)cc1C(=O)NCc1ccc(-c2nn(C(CC3CCCCC3)CN(C)C(=O)n3cncn3)c3ncnc(N)c23)cc1 (centres unmarked) [Compound 202, N-(2-(4-amino-3-(4-((5-fluoro-2-methoxybenzamido)methyl)phenyl)-1H-pyrazolo[3,4-d]pyrimidin-1-yl)-3-cyclohexylpropyl)-N-methyl-1H-1,2,4-triazole-1-carboxamide]
21 | > 1 | > 1 | COc1ccc(F)cc1C(=O)NCc1ccc(-c2nn(C(Cc3ccncc3)CN(C)C(=O)n3cncn3)c3ncnc(N)c23)cc1 (centres unmarked) [Compound 281]
22 | > 1 | ≤ 1 | COc1ccc(F)cc1C(=O)NCc1ccc(-c2nn(C(C)CN(C(=O)n3cncn3)C3CC3)c3ncnc(N)c23)cc1 (centres unmarked) [Compound 230, N-(2-(4-amino-3-(4-((5-fluoro-2-methoxybenzamido)methyl)phenyl)-1H-pyrazolo[3,4-d]pyrimidin-1-yl)propyl)-N-cyclopropyl-1H-1,2,4-triazole-1-carboxamide]
